The values below come from patent US6492339B1, “Compositions comprising D-chiro inositol and sulfonylureas and methods of treatment thereof” (Insmed, Incorporated, priority 2001, dated 2002).

“Also recorded” adds a separate entry of the source.

The subject of series [1] is obese insulin-resistant rhesus monkeys. To be noted: oral or intravenous route; cited from earlier work.
Series [2] concerns obese patients with type 2 diabetes mellitus. The experiment in a line: Meal tolerance test (MTT) at baseline and final visit of the clinical trial. The class given is in vivo, human. As to the method: Changes in area-under-the-curve (AUC) and 120-minute insulin and glucose levels during the meal tolerance test (MTT).
(§1) The study involved 5 scheduled visits. The first visit was the screening visit, followed by a baseline visit up to 2 weeks later. Patients were randomized at the baseline visit, half to 1200 mg/day D-chiro-inositol and half to placebo. and subsequently began 13 weeks of treatment with blinded study medication. There were 3 visits for safety and efficacy assessments, at 4, 8, and 13 weeks after beginning treatment. The 13week visit was the final visit. Patients arrived at the investigational site in a fasted state for all visits. Assessments were to be done at the same time of day at each visit by the same responsible personnel. Medication was taken once a day at the same time of morning, except on visit days, on which the dose was delayed until just after fasting blood samples had been collected.
(§2) Biomarkers: A meal tolerance test (MTT) was performed at baseline (Visit 2) and the final visit (Visit 5). In addition, blood was drawn at every visit for assessment of fasting glucose and insulin, HbA1c, C-peptide, fructosamine, FFA, triglycerides, total cholesterol, HDL, VLDL, LDL, and Apo-B levels.
AUC (and 120-minute) insulin and glucose levels during the MTT;.
FIGS. 1A, 1B and 2 illustrate the observation that D-chiro-inositol (DCI) prolongs pancreatic production of insulin in patients receiving sulfonylurea compounds. […] At baseline, a time when the subjects had been poorly managed on SU compounds alone, both the DCI group and the SU group responded similarly in their ability to produce insulin in response to the meal challenge. […] Without wishing to be bound by theory, the inventors contemplate that this progression is mediated by pancreatic failure and thus reduced insulin secretion. Therefore the amelioration of this effect by administration of DCI benefits the subject by the aforementioned medical improvements, but also will prevent the progression of diabetes by preventing pancreatic failure and/or decreased insulin production.

Series [3] deals with streptozotocin-treated rats, obese Zucker rats, or normal rats given a glucose load. To be noted: obese Zucker or glucose-loaded normal rats; cited from earlier work.
The subject of the next series is type 2 diabetic patients. The experiment in a line: Subgroup analysis of lipid lowering drug/D-chiro-inositol effects on LDL cholesterol. To be noted: type 2 diabetic patients on sulfonylurea, with or without lipid lowering medications. The class given is in vivo, human. As to the method:
Due to the observation of lipid lowering effects seen in the DCI group, the clinical trial described in EXAMPLE 1 was further analyzed for synergistic interactions between D-chiro-inositol and lipid lowering medications. Certain patients within the trial were treated according to standard of care with HMC-CoA inhibitors (LIPITOR®, LESCOL®, ZOCOR®, MEVACOR®, PRAVACHOL®), gemfibrozil, or a combination of HMC-CoA and gemfibrozil. No inclusion or exclusion criteria were established for the efficacy of the lipid lowering drug efficacy in the patient population. As stated supra, these patients were being sub optimally treated with a sulfonylurea prior to beginning the clinical trial.

Series [4] has as its system obese patients with type 2 diabetes mellitus. The experiment in a line: Randomized, placebo-controlled, double-blind clinical trial of D-chiro-inositol in combination with a sulfonylurea (fasting biomarkers, HbA1c, lipids). The series is classed as in vivo, human. The settings on record: for difference to placebo in change of mean HbA1c level (%): baseline to endpoint. As to the method:
The objective of this study was to assess the efficacy and safety of D-chiro-inositol when administered as a single oral dose of 1200 mg/day compared to placebo, each in combination with sulfonylureas, for 3 months. Patients were required to have been on sulfonylureas for 3 months prior to study entry without reaching their target dose or with a suboptimal response.
This multicenter, double-blind, parallel-group, placebo-controlled, randomized, fixed-dose clinical study was designed to evaluate 1200 mg/day D-chiro-inositol versus placebo in 270 obese patients with type 2 diabetes mellitus who had been receiving sulfonylureas for at least 3 months without reaching their target or with suboptimal response.
as §1
Patients receiving D-chiro-inositol received four 300 mg capsules once daily for a total daily dose of 1200 mg; placebo patients took 4 placebo capsules once daily. Doses were taken orally, generally in the mornings. Patients were instructed to take their dose in the morning at the same time each day, except on visit days. On visit days, dosing was to be done at the clinic. No instructions were given regarding when to take medication in relation to meals on non-visit days.
as §2
Primary Efficacy Variable(s) and Analyses. The primary analysis was based on the change from baseline to endpoint in HbA1c level using the modified ITT and evaluable study populations. The analysis was done using an analysis of covariance (ANCOVA) model with treatment group and the baseline HbA1c value as predictors.
Secondary Efficacy Variable(s) and Analyses. Since all secondary efficacy parameters were continuous, they were analyzed in the same manner as described above for the primary efficacy parameter, with treatment group and baseline values for the relevant parameter used as predictors.

The next series relates to diabetic population. To be noted: in combination with sulfonylurea or insulin; cited from earlier work.
[5] abbreviates: evaluable patients with fasting plasma glucose ≦180 mg/dL, 1200 mg/day oral with sulfonylureas.
[6] abbreviates: evaluable population, 1200 mg/day oral with sulfonylureas, 13 weeks.
Where [7] appears, read: patients with fasting plasma glucose ≦180 mg/dL, 1200 mg/day oral with sulfonylureas.

On to `OC1C(O)C(O)C(O)C(O)C1O` [D-chiro-inositol], for which the “disappearance rate of plasma glucose and insulin” value in series [1] was “significantly increased the disappearance rate of both plasma glucose and insulin”. The “Change in insulin AUC from baseline to final (FIG. 2)” value in series [2] (DCI+SU, scatter diagram of individual subjects, median, listed as DCI) is “no significant negative scatter; also recorded: slightly increased the insulin AUC”. Besides, the “insulin response after a meal tolerance test, baseline versus final (FIGS. 1A, 1B)” value in series [2] (DCI+SU, subjects with fasting blood glucose ≤180 mg/dl, three month timepoint, listed as DCI) is “maintained this response after the 13 week course of treatment; also recorded: maintains a constant insulin response over the testing period”. The “AUC insulin, mean change” value in series [2] (setting [5]) is 1070.8 μU/mL · hr. In series [2] (setting [6]), the “120-min. insulin, mean change at endpoint” value turned out to be 3.50 μU/mL and the “AUC insulin, mean change at endpoint” value was found to be 484.4 μU/mL · hr. Further, the glycemic control result in series [3] is “significantly improved glycemic control”. Also, in the series on type 2 diabetic patients, the “effect on LDL cholesterol (FIG. 3)” value is on record as “significantly reduced the increase of LDL cholesterol”. Moreover, in series [4] (all subjects using LOCF at endpoint, 1200 mg/day oral with sulfonylureas, 13 weeks), the “Mean change (in %) in HbA1c levels from baseline to endpoint” value is on record as −0.16%. In addition, the “decrease in mean HbA1c level (%) from baseline to endpoint” value in series [4] (evaluable patients with FPG≦180 mg/dL, value printed as size of the decrease) is recorded as 0.53%. In addition, in series [4] (setting [5]), the “Apo-B, mean change” value was -4.00 mg/dL. For the same molecule, the “difference to placebo in change of mean HbA1c level (%)” value in series [4] (evaluable population) is reported as 0.36%. Also, in series [4] (setting [6]), the “FFA, mean change at endpoint” value is −0.07 mEq/L. Besides, the “decrease in mean HbA1c levels (%) from baseline to endpoint” value in series [4] (evaluable population, value printed as size of the decrease) came to 0.16%. Further, the “difference to placebo in change of mean HbA1c level (%)” value in series [4] (patients with FPG≦180 mg/dL) was 0.80%. Further, the “Mean change (in %) in HbA1c levels to endpoint” value in series [4] (patients with fasting plasma glucose ≦180 mg/dL, LOCF at endpoint, 1200 mg/day oral with sulfonylureas) is −0.53%. Also, in series [4] (setting [7]), the “Mean change (in %) in HbA1c levels to Week 4” value is −0.47% and the “Mean change (in %) in HbA1c levels to Week 8” value is −0.57%.
Take `CCc1ccc(CCOc2ccc(CC3SC(=O)NC3=O)cc2)nc1` (stereo not shown) [pioglitazone]: the “rate of mild to moderate hypoglycemia” value in the series with diabetic population is 1-2%.
